Experimental data taken from ChEMBL document CHEMBL3886166, “Heterocyclic compounds” (2015).

Target: T1, Transient receptor potential cation channel subfamily V member 1 (Homo sapiens, UniProt Q8NER1)
Experiment: pH-Based Assay: Two days prior to performing this assay, cells are seeded on poly-D-lysine-coated 96-well clear-bottom black plates (commercially available from Becton-Dickinson) at 75,000 cells/well in growth media containing 5 uM PonA (commercially available from Invitrogen) to induce expression of TRPV1. On the day of the assay, the plates are washed with 0.2 mL 1x Hank's Balanced Salt Solution (commercially available from Life Technologies) containing 1.6 mM CaCl2 and 20 mM HEPES, pH 7.4 (wash buffer), and loaded using 0.1 mL of wash buffer containing Fluo-4 (3 uM final concentration, commercially available from Molecular Probes). After 1 h, the cells are washed twice with 0.2 mL wash buffer and resuspended in 0.05 mL 1x Hank's Balanced Salt Solution (commercially available from Life Technologies) containing 3.5 mM CaCl2 and 10 mM Citrate, pH 7.4 (assay buffer). Plates are then transferred to a FLIPR for assay.

T1 sequence (Q8NER1 whole entry): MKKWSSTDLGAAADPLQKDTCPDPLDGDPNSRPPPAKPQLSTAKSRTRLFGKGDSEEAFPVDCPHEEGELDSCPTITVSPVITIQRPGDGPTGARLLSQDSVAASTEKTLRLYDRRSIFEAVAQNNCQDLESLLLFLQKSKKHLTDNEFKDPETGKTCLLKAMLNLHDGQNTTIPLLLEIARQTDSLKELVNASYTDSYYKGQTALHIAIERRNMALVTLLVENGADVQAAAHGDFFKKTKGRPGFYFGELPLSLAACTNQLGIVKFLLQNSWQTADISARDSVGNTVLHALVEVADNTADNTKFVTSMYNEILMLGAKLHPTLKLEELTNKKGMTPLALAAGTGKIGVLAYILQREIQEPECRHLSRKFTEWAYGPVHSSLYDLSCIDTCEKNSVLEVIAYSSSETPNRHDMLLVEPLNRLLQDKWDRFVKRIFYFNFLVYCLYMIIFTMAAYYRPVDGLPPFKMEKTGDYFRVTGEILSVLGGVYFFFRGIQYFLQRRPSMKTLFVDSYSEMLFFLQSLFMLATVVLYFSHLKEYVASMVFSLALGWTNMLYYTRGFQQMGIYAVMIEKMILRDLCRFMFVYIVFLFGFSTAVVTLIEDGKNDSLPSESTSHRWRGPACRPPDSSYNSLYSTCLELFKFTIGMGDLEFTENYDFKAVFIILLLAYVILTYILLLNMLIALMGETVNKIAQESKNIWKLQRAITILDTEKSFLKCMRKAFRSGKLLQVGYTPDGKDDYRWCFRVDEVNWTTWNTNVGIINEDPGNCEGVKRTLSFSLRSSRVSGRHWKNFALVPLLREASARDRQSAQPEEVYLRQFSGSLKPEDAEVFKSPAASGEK

IC50, < 100 nM:
O=C(Nc1ccc(C(F)(F)F)cn1)N1CCN(c2ncc(-c3nc(CO)no3)cc2Cl)CC1, Cc1cc(NC(=O)N2CC=C(c3ncc(-c4nnc(CCO)o4)cc3Cl)CC2)ccc1OC(F)(F)F, Cc1noc(-c2cnc(C3=CCN(C(=O)Nc4ccc(OC(F)(F)F)cc4)CC3)c(Cl)c2)n1, O=C(Nc1ccc(C(F)(F)F)cn1)N1CC=C(c2ncc(-c3cnc(CO)o3)cc2Cl)CC1, Cc1cc(NC(=O)N2CC=C(c3ncc(-c4nnc(CCO)o4)cc3Cl)CC2)ccc1C(F)(F)F, Cc1cc(NC(=O)N2CCN(c3ncc(-c4nc(CO)no4)cc3Cl)CC2)ccc1C(F)(F)F, O=C(Nc1ccc(C(F)(F)F)c(Cl)c1)N1CCN(c2ncc(-c3nnc(CO)o3)cc2Cl)CC1, Cc1cc(NC(=O)N2CC=C(c3ncc(-c4nc(CO)no4)cc3Cl)CC2)ccc1C(F)(F)F, O=C(Nc1ccc(C(F)(F)F)c(Cl)c1)N1CC=C(c2ncc(-c3ocnc3CO)cc2Cl)CC1, Cc1cc(NC(=O)N2CCN(c3ncc(-c4nnc(CO)o4)cc3Cl)CC2)ccc1C(F)(F)F, Cc1nnc(-c2cnc(C3=CCN(C(=O)Nc4ccc(C(F)(F)F)cn4)CC3)c(Cl)c2)o1, O=C(Nc1ccc(C(F)(F)F)c(Cl)c1)N1CCC(F)(c2ncc(-c3nc(CO)no3)cc2Cl)CC1, Cc1noc(-c2cnc(C3=CCN(C(=O)Nc4ccc(C(F)(F)F)cc4)CC3)c(Cl)c2)n1, O=C(Nc1ccc(C(F)(F)F)c(Cl)c1)N1CC=C(c2ncc(-c3cc(CO)on3)cc2Cl)CC1, O=C(Nc1ccc(C(F)(F)F)cn1)N1CC=C(c2ccc(-c3nnc(CO)o3)cc2Cl)CC1, O=C(Nc1ccc(C(F)(F)F)cn1)N1CC=C(c2ncc(-c3cc(CO)on3)cc2Cl)CC1, Cc1cc(NC(=O)N2CCC(F)(c3ncc(-c4nc(CO)no4)cc3Cl)CC2)ccc1C(F)(F)F, O=C(Nc1ccc(C(F)(F)F)c(Cl)c1)N1CCC(F)(c2ncc(-c3noc(CO)n3)cc2Cl)CC1, O=C(Nc1ccc(C(F)(F)F)cn1)N1CCC(F)(c2ncc(-c3noc(CO)n3)cc2Cl)CC1

Target: T1, Transient receptor potential cation channel subfamily V member 1
Experiment: Capsaicin-Based Assay: Two days prior to performing this assay, cells are seeded in poly-D-lysine-coated 96-well clear-bottom black plates (50,000 cells/well) in growth media containing 5 uM PonA (commercially available from Invitrogen) to induce expression of TRPV1. On the day of the assay, the plates are washed with 0.2 mL 1x Hank's Balanced Salt Solution (commercially available from Life Technologies) containing 1 mM CaCl2 and 20 mM HEPES, pH 7.4, and cells are loaded using 0.1 mL of wash buffer containing Fluo-4 (3 uM final). After one hour, the cells are washed twice with 0.2 mL of wash buffer and resuspended in 0.1 mL of wash buffer. The plates are transferred to a FLIPR for assay. 50 uL of test compound diluted with assay buffer (1x Hank's Balanced Salt Solution containing 1 mM CaCl2 and 20 mM HEPES, pH 7.4) are added to the cell plates and incubated for 2 min. The final concentration of the compound is adjusted to range from about 50 picoM to about 3 uM.

IC50, < 100 nM:
O=C(Nc1ccc(C(F)(F)F)cn1)N1CC=C(c2ncc(-c3nc(CO)no3)cc2Cl)CC1, Cc1cc(NC(=O)N2CCC(F)(c3ncc(-c4ocnc4CO)cc3Cl)CC2)ccc1C(F)(F)F, O=C(Nc1ccc(C(F)(F)F)c(Cl)c1)N1CC=C(c2ncc(-c3noc(CO)n3)cc2Cl)CC1, Cc1nnc(-c2cnc(C3=CCN(C(=O)Nc4ccc(OC(F)(F)F)cc4)CC3)c(Cl)c2)o1, O=C(C#Cc1ccc(-c2nnc(CO)o2)cc1Cl)Nc1ccc(C(F)(F)F)c(Cl)c1, O=C(Nc1ccc(C(F)(F)F)cc1)N1CC=C(c2ncc(-c3nnc(CO)o3)cc2Cl)CC1, O=C(Nc1ccc(C(F)(F)F)cn1)N1CC=C(c2ncc(-c3noc(CO)n3)cc2Cl)CC1, O=C(C#Cc1ccc(-c2nnc(CO)o2)cc1Cl)Nc1ccc(C(F)(F)F)cc1, O=C(Nc1ccc(C(F)(F)F)c(Cl)c1)N1CC=C(c2ncc(-c3nnc(CO)o3)cc2Cl)CC1, O=C(Nc1ccc(C(F)(F)F)cn1)N1CCN(c2ncc(-c3nnc(CO)o3)cc2Cl)CC1, O=C(Nc1ccc(C(F)(F)F)cn1)N1CC=C(c2ncc(-c3nnc(CO)o3)cc2Cl)CC1, Cc1cc(NC(=O)N2CC=C(c3ncc(-c4nc(CO)no4)cc3F)CC2)ccc1C(F)(F)F, Cc1nnc(-c2cnc(C3=CCN(C(=O)Nc4ccc(C(F)(F)F)cc4)CC3)c(Cl)c2)o1, O=C(Nc1ccc(C(F)(F)F)cn1)N1CC=C(c2ncc(-c3nc(CO)no3)cc2F)CC1
